Data reported in paper PMC5001616 (Nucleic Acids Research, 2016).
Values joined by “and” are separate entries in the source; they are usually repeats but may differ in a detail not shown here. Identical values can stand only once. Like-named read-outs stand apart in the source and are kept apart here.

Experiments:
[1] = target: G140S-Q148H (SH) mutant HIV-1 IN (Human immunodeficiency virus type 1 group M subtype B, UniProt P12497, G1287S/Q1295H); conditions: abasic substrates vs normal substrate
Procedure: (§1) Oligonucleotides harboring a tetrahydrofuran group in place of the nucleobase at position −1 (21Ab-1, […]_GT), at position +1 (21Ab+1, […]_T), position +2 (21Ab+2, […]_) and in place of the last 2 bases (21-2Ab, […]__) were purchased from Eurogentec with PAGE purification. 5’-Labeling was performed using T4 polynucleotide kinase (New England Biolabs, Ipswich, MA, USA) with [γ-^32P]-ATP (Perkin-Elmer Life and Analytical Sciences, Boston, MA, USA) according to the manufacturers’ instructions. Unincorporated isotopes were removed using the Mini Quick spin oligo columns (Roche). Duplex substrates were obtained by annealing ‘top’ (21t or 19t) and ‘bottom’ (21b) oligonucleotides at equimolar ratio.
(§2) WT and mutant INs were purified and their enzymatic activities measured as previously reported ([11]). […] 3′-P and ST reactions were performed at 37°C for 120 min unless otherwise indicated.
(§3) Linear regressions, fit curves, IC50 determinations, standard deviations, standard error of the mean and statistical analyses (P-values) were generated using GraphPad Prism software 5.0c. Pearson and Spearman correlations were determined using the following equation: […]

[2] = target: T1, WT HIV-1 IN (Human immunodeficiency virus type 1 group M subtype B, UniProt P12497); assay: 3'-processing (3'-P) inhibition, recombinant WT IN, gel-based; assay type: biochemical
T1 construct: we tested the 3′-P activity of WT and SH mutant integrases; made in house
Procedure: as §1, §2, §3

[3] = system: WT HIV-1 intasome; conditions: cited from earlier work
[4] = target: T1, WT HIV-1 IN; conditions: read-out: IC50, inhibition of ST; cited from earlier work

Structure (SMILES): C[C@@H]1CCO[C@H]2Cn3cc(C(=O)NCc4ccc(F)cc4F)c(=O)c(O)c3C(=O)N12 [DTG, dolutegravir]
- Increase of IC50 for 3'-P on removing either the -1 or +1 base [1]: about 100 fold
- Selectivity index (SI) for 3'-P/ST ([2]; IC50 for 3'-P divided by IC50 for ST): 50
- IC50 ([2]; read-out: IC50, inhibition of 3'-P, canonical CAGT substrate, 120 min): 1640 nM and 1600 nM
- Time bound to the WT HIV-1 intasome relative to EVG ([3]; longer than EVG): 26 fold
- Time bound to the WT HIV-1 intasome relative to RAL ([3]; longer than RAL): 8 fold
- IC50 [4]: 33 nM
